Source: US5961978A, “Therapeutically useful peptides and peptide fragments” (Norsk Hydro, a.s., priority 1991, dated 1999)
Where no end group is shown, it is not given here.

Tests used:
T cell clone F = test: T cell proliferation assay, clone F; type: cell-based, human; conditions: for stimulation of clone F by truncated forms of peptide 45: 10 μmolar
Procedure: (§1) FIG. 2 and FIGS. 2a-2e show the specificity of the T cell clones I, B, E and F in T cell proliferation assays. Assays were set up in triplicate in 96 well plates, with the five peptides present in the original peptide mixture as stimulating antigens. The wells contained 50000 irradiated (8000 R) autologous EBV transformed B cells as antigen presenting cells (APC).
(§2) Cultures were incubated for 2 days at 37° C. in a 5% CO2 incubator, and pulsed overnight with 1 μCi of ^3 H-thymidine (Amersham, England) per well before harvesting onto glass fibre filters by an automated cell harvester (Scatron, Lierbyen, Norway). Thymidine incorporation into DNA was quantitated by liquid scintillation counting using an LKB 1205 Betaplate Liquid Scintillation counter. Data are given as medians of triplicate cultures. Controls included T cell clones cultured alone, or with APC in the absence of peptides. The panels are scaled according to the magnitude of the positive response.
The conditions of the assay were exactly as described in FIG. 6.
The peptide concentration was as given in the Figure, and the conditions of the assay were otherwise as described for FIG. 6.

HLA-DQ = test: Peptide inhibition study, clone E as indicator responder cell (binding of peptide 43 to HLA-DQ); type: cell-based, human; conditions: FIG. 7; 5 μmolar peptide 43, 250 μmolar inhibitory peptide
Source text: Conditions are otherwise as described in FIG. 4.
Five μmolar concentration of stimulatory peptide (peptide 43) and 250 μmolar of the inhibitory peptides were used. Conditions were otherwise as described in FIG. 4. Note: Peptide 65 and 81 are non-stimulatory in a concentration of 10 μmolar (FIG. 6), but are stimulatory in a concentration of 250 μmolar.
In order to map peptide binding to HLA-DR and HLA-DQ, we tested the non-stimulatory p21 ras peptides for capacity to inhibit the binding of peptide 42 to HLA-DR, using stimulation of clone I as indicator system, and inhibition of peptide 43 binding to HLA-DQ using stimulation of clone E as an indicator system.

T cell clone E = test: T cell proliferation assay, clone E; type: cell-based, human
Procedure: as §1, §2
The conditions of the assay were as described in FIG. 2. […]

DQw6 = test: Inhibition of binding of iodinated indicator peptide P104 to affinity purified HLA DQw6; set-up: species or system human; conditions: tested 0,33-10 μM
DR1 = type: binding, human; conditions: indicator iodinated P34, tested 0,33-10 μM

## VVVGAAGVGKSALAL [compound 69, N-terminally truncated form of peptide 45]
T cell clone F
  stimulation of clone F by truncated forms of peptide 45: stimulate

## AGVVGKSALAL [compound 68, N-terminally truncated form of peptide 43]
HLA-DQ
  inhibition of clone E response to peptide 43 by truncated peptides: inhibit

## VVVGAGVVGKSALAL [compound 64, N-terminally truncated form of peptide 43]
T cell clone E; 10 μmolar
  stimulation of clone E by truncated forms of peptide 43: stimulate

## VVGAAGVGKSA [p90]
DQw6
  IC50: 9.98 µM

## VVVGAAGVGKSA [p91]
DQw6
  IC50: 1.29 µM

## VVVGAAGVGKS [P89]
DQw6
  IC50: 10 µM

## GAGVVGKSALAL [compound 67, N-terminally truncated form of peptide 43]
HLA-DQ
  inhibition of clone E response to peptide 43 by truncated peptides: inhibit

## VVGAAGVGKS [P88]
DQw6
  IC50: 8.97 µM
T cell clone F; FIG. 16
  dose-response of clone F, potency compared to peptide 45: far less potent

## P104: printed Y----------- (SEQ ID NO. 93); iodinated P104 was the indicator peptide for binding to DQw6 (YVVVGAAGVGKSA; also: iodinated) [reference compound]
DR1
  IC50: 0.78 µM
DQw6
  IC50: < 0.33 µM

## VVGAAGVGKSALAL [compound 70, N-terminally truncated form of peptide 45]
T cell clone F
  stimulation of clone F by truncated forms of peptide 45: stimulate

## VGAGVVGKSALAL [compound 66, N-terminally truncated form of peptide 43]
HLA-DQ
  inhibition of clone E response to peptide 43 by truncated peptides: inhibit

## VVGAGVVGKSALAL [compound 65, N-terminally truncated form of peptide 43]
T cell clone E; 10 μmolar
  stimulation of clone E by truncated forms of peptide 43: non-stimulatory
T cell clone E; 250 μmolar
  stimulation of clone E by truncated forms of peptide 43: become stimulatory
T cell clone E; 250 μmolar, listed as Peptide 65
  stimulation of clone E by truncated forms of peptide 43: stimulatory
